Measured values taken from patent US11214803B2, “Modulators of YAP1 expression” (Ionis Pharmaceuticals, Inc., priority 2019, dated 2022).
Strand notation (5' to 3'): a small letter for the sugar, then the base; units joined by * are phosphorothioate-linked, units joined directly phosphodiester-linked; [ ] holds rarer units or linkages, { } end groups; capitals alone tell only the bases. e = 2'-O-(2-methoxyethyl) (MOE); k = constrained ethyl (cEt); [5mC] = 5-methylcytosine; d = 2'-deoxy (DNA)

System: Yap1 mRNA
Assay: Antisense inhibition of human Yap1 in SNU-449 cells by modified oligonucleotides, single dose (Example 5, RTS36584)
Assay type: cell-based
Settings: Table 44 experiment; SNU-449 cells, 10,000 cells per well, free uptake, 2,000 nM, approximately 48 hours; RTS36584; Yap1 mRNA normalized to RIBOGREEN, relative to untreated control cells
Procedure, shortened: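 Values are % of untreated control: Yap1 mRNA by quantitative RT-PCR (RTS36584), normalized to RIBOGREEN total RNA. Oligonucleotides were dosed at 2,000 nM, free uptake, in SNU-449 cells, with roughly 48 h exposure before RNA isolation.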

Row | Substance | YAP1 (% UTC)
1 | 1198513 (k[5mC]*kA*dA*d[5mC]*dT*d[5mC]*dT*dT*dA*dT*dA*eT*kG*eG*kT*eT; antisense) [Compound 1198513] | 63 % UTC
2 | 1198514 (kG*kA*d[5mC]*dA*dA*d[5mC]*dT*d[5mC]*dT*dT*dA*eT*kA*eT*kG*eG; antisense) [Compound 1198514] | 53 % UTC
3 | 1198515 (kA*kT*dT*dG*d[5mC]*dA*dA*dT*d[5mC]*dT*dG*eT*k[5mC]*eT*kG*eA; antisense) [Compound 1198515] | 44 % UTC
4 | 1198516 (kA*kT*dA*dT*dT*dG*d[5mC]*dA*dA*dT*d[5mC]*eT*kG*eT*k[5mC]*eT; antisense) [Compound 1198516] | 50 % UTC
5 | 1198517 (kA*kA*dT*dA*dT*dT*dG*d[5mC]*dA*dA*dT*e[5mC]*kT*eG*kT*e[5mC]; antisense) [Compound 1198517] | 36 % UTC
6 | 1198518 (kT*kA*dA*dT*dA*dT*dT*dG*d[5mC]*dA*dA*eT*k[5mC]*eT*kG*eT; antisense) [Compound 1198518] | 71 % UTC
7 | 1198519 (kG*kT*dA*dA*dT*dA*dT*dT*dG*d[5mC]*dA*eA*kT*e[5mC]*kT*eG; antisense) [Compound 1198519] | 20 % UTC
8 | 1198520 (kT*kG*dT*dA*dA*dT*dA*dT*dT*dG*d[5mC]*eA*kA*eT*k[5mC]*eT; antisense) [Compound 1198520] | 51 % UTC
9 | 1198521 (kA*kT*dG*dT*dA*dA*dT*dA*dT*dT*dG*e[5mC]*kA*eA*kT*e[5mC]; antisense) [Compound 1198521] | 44 % UTC
10 | 1198522 (kT*kA*dT*dG*dT*dA*dA*dT*dA*dT*dT*eG*k[5mC]*eA*kA*eT; antisense) [Compound 1198522] | 37 % UTC
11 | 1198523 (kT*kT*dT*dA*dT*dG*dT*dA*dA*dT*dA*eT*kT*eG*k[5mC]*eA; antisense) [Compound 1198523] | 93 % UTC
12 | 1198524 (kT*kG*dT*dA*dT*dG*dT*d[5mC]*dA*dG*dA*eA*kG*eA*kG*eT; antisense) [Compound 1198524] | 3 % UTC
13 | 1198525 (kA*kG*dT*dG*dT*dA*dT*dG*dT*d[5mC]*dA*eG*kA*eA*kG*eA; antisense) [Compound 1198525] | 2 % UTC
14 | 1198526 (kA*kA*dG*dT*dG*dT*dA*dT*dG*dT*d[5mC]*eA*kG*eA*kA*eG; antisense) [Compound 1198526] | 2 % UTC
15 | 1198527 (kA*kA*dA*dG*dT*dG*dT*dA*dT*dG*dT*e[5mC]*kA*eG*kA*eA; antisense) [Compound 1198527] | 5 % UTC
16 | 1198528 (kT*kA*dA*dA*dG*dT*dG*dT*dA*dT*dG*eT*k[5mC]*eA*kG*eA; antisense) [Compound 1198528] | 14 % UTC
17 | 1198529 (kT*kT*dA*dA*dA*dG*dT*dG*dT*dA*dT*eG*kT*e[5mC]*kA*eG; antisense) [Compound 1198529] | 17 % UTC
18 | 1198530 (kT*kT*dT*dA*dA*dA*dG*dT*dG*dT*dA*eT*kG*eT*k[5mC]*eA; antisense) [Compound 1198530] | 29 % UTC
19 | 1198531 (k[5mC]*kT*dT*dT*dA*dA*dA*dG*dT*dG*dT*eA*kT*eG*kT*e[5mC]; antisense) [Compound 1198531] | 21 % UTC
20 | 1198532 (kA*kA*d[5mC]*dT*dT*dT*dA*dA*dA*dG*dT*eG*kT*eA*kT*eG; antisense) [Compound 1198532] | 36 % UTC
21 | 1198533 (kT*kA*dA*dG*dG*dT*dT*dT*d[5mC]*d[5mC]*d[5mC]*eA*kG*eA*kT*eT; antisense) [Compound 1198533] | 35 % UTC
22 | 1198534 (kA*kG*dT*dA*dA*dG*dG*dT*dT*dT*d[5mC]*e[5mC]*k[5mC]*eA*kG*eA; antisense) [Compound 1198534] | 30 % UTC
23 | 1198535 (kA*kA*dG*dT*dA*dA*dG*dG*dT*dT*dT*e[5mC]*k[5mC]*e[5mC]*kA*eG; antisense) [Compound 1198535] | 35 % UTC
24 | 1198536 (kT*kA*dA*dG*dT*dA*dA*dG*dG*dT*dT*eT*k[5mC]*e[5mC]*k[5mC]*eA; antisense) [Compound 1198536] | 20 % UTC
25 | 1198537 (k[5mC]*kT*dA*dA*dG*dT*dA*dA*dG*dG*dT*eT*kT*e[5mC]*k[5mC]*e[5mC]; antisense) [Compound 1198537] | 24 % UTC
26 | 1198538 (kA*k[5mC]*dT*dA*dA*dG*dT*dA*dA*dG*dG*eT*kT*eT*k[5mC]*e[5mC]; antisense) [Compound 1198538] | 29 % UTC
27 | 1198539 (antisense kG*kA*d[5mC]*dT*dA*dA*dG*dT*dA*dA*dG*eG*kT*eT*kT*e[5mC]) [Compound 1198539] | 54 % UTC
28 | 1198540 (antisense kA*kG*dA*d[5mC]*dT*dA*dA*dG*dT*dA*dA*eG*kG*eT*kT*eT) [Compound 1198540] | 51 % UTC
29 | 1198541 (antisense kT*kT*dA*dG*dA*d[5mC]*dT*dA*dA*dG*dT*eA*kA*eG*kG*eT) [Compound 1198541] | 34 % UTC

Same assay, conditions: Table 49; Yap1 mRNA level relative to untreated control; modified oligonucleotides targeting SEQ ID NO.: 1 and 2

Row | Substance | YAP1 (% UT)
30 | 1198542 (antisense kT*kG*kT*d[5mC]*dT*d[5mC]*dA*dT*dG*d[5mC]*d[5mC]*dT*kT*kA*kT*eA) [Compound 1198542] | 23 % UT
31 | 1198543 (antisense kA*kT*kT*dG*dT*d[5mC]*dT*d[5mC]*dA*dT*dG*d[5mC]*k[5mC]*kT*kT*eA) [Compound 1198543] | 15 % UT
32 | 1198544 (antisense kA*kA*kT*dT*dG*dT*d[5mC]*dT*d[5mC]*dA*dT*dG*k[5mC]*k[5mC]*kT*eT) [Compound 1198544] | 21 % UT
33 | 1198545 (antisense kA*kA*kA*dT*dT*dG*dT*d[5mC]*dT*d[5mC]*dA*dT*kG*k[5mC]*k[5mC]*eT) [Compound 1198545] | 32 % UT
34 | 1198546 (antisense kG*kA*kA*dA*dT*dT*dG*dT*d[5mC]*dT*d[5mC]*dA*kT*kG*k[5mC]*e[5mC]) [Compound 1198546] | 11 % UT
35 | 1198547 (antisense kG*kG*kA*dA*dA*dT*dT*dG*dT*d[5mC]*dT*d[5mC]*kA*kT*kG*e[5mC]) [Compound 1198547] | 27 % UT
36 | 1198548 (antisense kT*kG*kG*dA*dA*dA*dT*dT*dG*dT*d[5mC]*dT*k[5mC]*kA*kT*eG) [Compound 1198548] | 26 % UT
37 | 1198549 (antisense kA*kT*kG*dG*dA*dA*dA*dT*dT*dG*dT*d[5mC]*kT*k[5mC]*kA*eT) [Compound 1198549] | 84 % UT
38 | 1198550 (antisense kA*kT*kA*dT*dG*dG*dA*dA*dA*dT*dT*dG*kT*k[5mC]*kT*e[5mC]) [Compound 1198550] | 17 % UT
39 | 1198551 (antisense kA*kG*kT*dA*dT*dG*dT*dG*dG*d[5mC]*dA*dA*kT*kA*kA*eT) [Compound 1198551] | 34 % UT
40 | 1198552 (antisense kA*kG*kA*dG*dT*dA*dT*dG*dT*dG*dG*d[5mC]*kA*kA*kT*eA) [Compound 1198552] | 17 % UT
41 | 1198553 (antisense kT*kA*kG*dA*dG*dT*dA*dT*dG*dT*dG*dG*k[5mC]*kA*kA*eT) [Compound 1198553] | 13 % UT
42 | 1198554 (antisense kT*kT*kA*dG*dA*dG*dT*dA*dT*dG*dT*dG*kG*k[5mC]*kA*eA) [Compound 1198554] | 16 % UT
43 | 1198555 (antisense kA*kT*kT*dA*dG*dA*dG*dT*dA*dT*dG*dT*kG*kG*k[5mC]*eA) [Compound 1198555] | 11 % UT
44 | 1198556 (antisense kT*kA*kT*dT*dA*dG*dA*dG*dT*dA*dT*dG*kT*kG*kG*e[5mC]) [Compound 1198556] | 25 % UT
45 | 1198557 (antisense kA*kT*kA*dT*dT*dA*dG*dA*dG*dT*dA*dT*kG*kT*kG*eG) [Compound 1198557] | 16 % UT
46 | 1198558 (antisense kT*kA*kT*dA*dT*dT*dA*dG*dA*dG*dT*dA*kT*kG*kT*eG) [Compound 1198558] | 46 % UT
47 | 1198559 (antisense kT*k[5mC]*kT*dA*dT*dA*dT*dT*dA*dG*dA*dG*kT*kA*kT*eG) [Compound 1198559] | 55 % UT

Same assay, conditions: Table 50; Yap1 mRNA remaining as percent of untreated control (UT), SNU-449 cells, single dose

Row | Substance | YAP1 (% UT)
48 | 1198560 (antisense kT*kA*kT*dA*dA*d[5mC]*dT*dG*dG*dG*d[5mC]*dA*kA*kA*kT*eT) [Compound 1198560] | 53 % UT
49 | 1198561 (antisense kG*kG*kT*dA*dT*dA*dA*d[5mC]*dT*dG*dG*dG*k[5mC]*kA*kA*eA) [Compound 1198561] | 29 % UT
50 | 1198562 (antisense kA*kG*kG*dT*dA*dT*dA*dA*d[5mC]*dT*dG*dG*kG*k[5mC]*kA*eA) [Compound 1198562] | 30 % UT
51 | 1198563 (antisense kG*kA*kG*dG*dT*dA*dT*dA*dA*d[5mC]*dT*dG*kG*kG*k[5mC]*eA) [Compound 1198563] | 53 % UT
52 | 1198564 (antisense kA*kA*k[5mC]*dA*d[5mC]*dT*dG*dA*dG*dG*dT*dA*kT*kA*kA*e[5mC]) [Compound 1198564] | 44 % UT
